{
  "source": "patent US8026231B2",
  "about": "“Aminothiolester compounds, pharmaceutical and cosmetic compositions containing same and uses thereof” (CNRS, priority 2000, dated 2011)",
  "key": {"DU145 cells [1]": {"system": "DU145 cells", "test": "Growth of DU145 cells (protein and DNA assay, 72 h)", "format": "cell-based, human", "description": "(§1) The cells used correspond to two cell lines: metastatic cells of human prostate cancer (DU145) and murine lymphoid cells transfected with the human bcl2 gene (BAF3 bcl2).\nThe procedure used for the tests on DU145 is as follows: • 10^5 cells are incubated in the various wells of a microplate in 1 ml of culture medium.\n(§2) The compounds are added 4 hours after placing the cells in the wells.\nAfter 72 hours, the cells are removed at different times. The DU145 cells are washed twice with PBS and recovered directly with 0.1M sodium chloride.\n(§3) The effect on the growth of the DU145 cells is measured by protein assay according to the Lowry method (Lowry, O. H., Rosenbrough, N. J., Farr, A. L. and Randall, J. Biol. Chem. 193, 265-275, (1951)) and DNA assay by the Hoechst method (West, D. C., Sattar, A. and Kumar, S., Anal. Biochem. 147, 289-295, (1985)).\n(§4) The IC50 concentration is the concentration corresponding to a 50% inhibition of cell growth."}, "BAF3 bcl2 cells": {"system": "BAF3 bcl2 cells", "test": "Growth of BAF3 bcl2 cells (viable cell count, Trypan blue)", "format": "cell-based, murine", "conditions": "50% inhibition of cell growth", "description": "as §1\nThe procedure used for the tests on BAF3 bcl2 cells is as follows: • 10^5 cells are incubated in the various wells of a microplate in 1 ml of culture medium. After incubation for 4 hours, the test compounds are added to the wells containing the BAF3 bcl2 cells.\nFor the BAF3 bcl2 cells, the growth is measured by counting the viable cells in the presence of 0.1% Trypan blue. The control consists of thioampal, disclosed in patent application WO 98/44919.\nas §4"}, "[2]": {"system": "normal human prostate cells", "test": "Combination of two compounds of the invention on normal human prostate cells", "format": "cell-based", "conditions": "Homo sapiens, Prostate cell", "description": "(§5) 10^5 normal human prostate cells or 10^5 cancerous human prostate cells (DU145) are incubated in various wells of a microplate in 1 ml of culture medium.\nas §2\n(§6) After 72 hours, the cells are removed at different times. The DU145 cells or the normal cells are washed twice with PBS and recovered directly with 0.1M sodium chloride.\nas §3, with “DU145 cells or the normal” for “DU145”"}, "DU145 cells [3]": {"system": "DU145 cells", "test": "Combination of two compounds of the invention on the growth of DU145 cells", "format": "cell-based, human", "conditions": "Homo sapiens, DU-145", "description": "as §5, §2, §6\nas §3, with “DU145 cells or the normal” for “DU145”"}, "R7 cells": {"system": "R7 cells", "test": "Growth of R7 cells which overexpress the MDR gene", "format": "cell-based", "conditions": "increasing concentrations, 72 h, FIGS. 7 and 8", "description": "(§7) 10^5 cells were incubated in the various wells of a microplate in 1 ml of culture medium. These are R7 cells, on the one hand, and K562 cells, on the other hand.\n(§8) After incubating for 4 hours, the test compound (compound of Example 1 according to the invention, on the one hand, and daunorubicin, on the other hand) was added to the wells containing the cells.\n(§9) After 72 hours, the cells were collected at different times.\n(§10) The growth of the cells was measured by counting the viable cells in the presence of 0.1% Trypan blue.\n(§11) FIGS. 7 and 8 respectively represent the percentage inhibition (I %) by daunorubicin and the compound of Example 1 on the growth of the R7 and K562 cells, obtained at increasing concentrations C. The results obtained with the K562 cells are symbolized by ♦ and those obtained with the R7 cells are symbolized by ▴."}, "K562 cells": {"system": "K562 cells", "test": "Growth of K562 cells (control, no MDR overexpression)", "format": "cell-based, human", "conditions": "increasing concentrations, 72 h, FIGS. 7 and 8", "description": "as §7, §8, §9, §10, §11"}, "DU145 cells [4]": {"system": "DU145 cells", "test": "Combination of Example 1 and Metmetlico on the growth of DU145 cells", "format": "cell-based, human", "description": "The cells used correspond to metastatic cells of human prostate cancer DU145. 10^5 DU145 cells are incubated in the various wells of a microplate in 1 ml of culture medium. The test compounds are added 4 hours after placing the cells in the wells. After 72 hours, the cells are removed at different times. The cells are washed twice with PBS and recovered directly with 0.1M sodium chloride. The effect on the growth of DU145 cells is measured by protein assay according to the Lowry method (Lowry, O. H., Rosenbrough, […]. and Randall, J. Biol. Chem. 193, 265-275, (1951)) and DNA assay by the Hoechst method (West, […]. and Kumar, S., Anal. Biochem. 147, 289-295, (1985)). The test compounds are the compound of Example 1, metmetlico and a mixture thereof."}, "[5]": {"conditions": "Homo sapiens, DU-145, 50% inhibition of cell growth"}},
  "data": [
    {"smiles": "CSC(=O)C#CC(C)(C)N1CCOCC1", "note": "[Example 5, S-methyl 4-methyl-4-morpholin-4-yl-2-pentynethioate]", "values": [
      {"measurement": "IC50", "setting": "DU145 cells [1]; [5]", "result": 8.8, "unit": "µM"},
      {"measurement": "IC50", "setting": "BAF3 bcl2 cells; Mus musculus", "result": 12, "unit": "µM"},
      {"measurement": "inhibition at 1 µM", "setting": "[2]; 1 μM", "result": 0, "unit": "%"},
      {"measurement": "inhibition at 2 µM", "setting": "[2]; 2 μM", "result": 1.3, "unit": "%"},
      {"measurement": "inhibition at 1 µM", "setting": "DU145 cells [3]; 1 μM", "result": 14.3, "unit": "%"},
      {"measurement": "inhibition at 2 µM", "setting": "DU145 cells [3]; 2 μM", "result": 25.2, "unit": "%"}
    ]},
    {"smiles": "CCCN(CCC)C(C)(C)C#CC(=O)SC", "note": "[Example 3, S-methyl 4-di-n-propylamino-4-methyl-2-pentynethioate]", "values": [
      {"measurement": "IC50", "setting": "DU145 cells [1]; [5]", "result": 8, "unit": "µM"},
      {"measurement": "IC50", "setting": "BAF3 bcl2 cells; Mus musculus", "result": 2.7, "unit": "µM"}
    ]},
    {"smiles": "CSC(=O)C#CC(C)(C)N1CCCC1", "note": "[Example 4, S-methyl 4-methyl-4-pyrrodin-1-yl-2-pentynethioate]", "values": [
      {"measurement": "IC50", "setting": "DU145 cells [1]; 50% inhibition of cell growth", "result": 7.2, "unit": "µM"},
      {"measurement": "IC50", "setting": "BAF3 bcl2 cells", "result": 2.7, "unit": "µM"}
    ]},
    {"smiles": "COc1cccc2c1C(=O)c1c(O)c3c(c(O)c1C2=O)C[C@@](O)(C(C)=O)C[C@@H]3O[C@H]1C[C@H](N)[C@H](O)[C@H](C)O1", "note": "[daunorubicin, reference compound]", "values": [
      {"measurement": "Inhibition of the growth of the R7 cells", "setting": "R7 cells", "result": "no inhibitory effect on the growth of the R7 cells"},
      {"measurement": "Inhibition of the growth of the K562 cells", "setting": "K562 cells", "result": "inhibits the growth of the K562 cells"}
    ]},
    {"smiles": "CSCCC(=O)SCCC(CCCCC(=O)OCC[N+](C)(C)C)SC(=O)CCSC.[I-]", "note": "(stereo not drawn) [Metmetlico, 2′-(trimethylammonium)ethyl 6S,8S-bis(3-methyl-thiopropanoyl)octanoate iodide, reference compound]", "values": [
      {"measurement": "% Inhibition of growth of the DU145 cells", "setting": "DU145 cells [4]; 25 μM", "result": 0, "unit": "%"},
      {"measurement": "% Inhibition of growth of the DU145 cells", "setting": "DU145 cells [4]; 50 μM", "result": 0, "unit": "%"}
    ]}
  ]
}
